EC50 and EC90 data for 35 molecules are collected here from US20240327354A1, “GRAM-NEGATIVE BACTERIA EFFLUX PUMP INHIBITORS” (INSTITUT NATIONAL DE LA SANTÉ ET DE LA RECHERCHE MÉDICALE, priority 2021, published 2024).

One assay relates to E. coli BW25113. Briefly: Assay 1: growth inhibition of E. coli by sub-inhibitory pyridomycin in combination with examples (resazurin reduction). The assay is classed as cell-based, Escherichia coli. Particulars: read-out: EC50 on E. coli with 8 μg/mL of pyridomycin, 8 μg/mL pyridomycin, 5 h, 37° C. An excerpt: (§1) Escherichia coli BW25113 (CGSC 7636) and its derivatives E. coli ΔtolC (JW5503-1, ΔtolC732::kan, CGSC 11430), E. coli ΔacrA (JW0452-3, ΔacrA748::kan, CGSC 11843) and E. coli ΔacrB (JW0451-2, ΔacrB747::kan, CGSC 8609) were obtained from E. coli Genetic Stock Center (CGSC, New Haven, Connecticut) and originated from the Keio Collection (Baba T et al, Mol Sys Biol, 2006). Klebsiella pneumoniae (LMG 2095/ATCC 13883) and K. pneumoniae (ATCC43816), Pseudomonas aeruginosa (PAO1), Acinetobacter baumannii (LMG 1025, ATCC 17978), were obtained from ATCC or BCCM/LMG Bacteria Collection. All bacteria were grown and tested in cation-adjusted Mueller-Hinton broth (CAMHB; BD Difco) at 37° C. For conservation, log phase bacteria were frozen (−80° C.) in CAMHB supplemented with 15% glycerol.
Briefly, E. coli BW25113 were diluted from frozen or growing stocks to an OD600 of 0.0004-0.001 in CAMHB. […] E. coli BW25113 viability was evaluated using the resazurin reduction assay, and measured by fluorescence (POLARstar Omega, BMG Labtech: Ex: 530 nm Em: 590 nm). EC50 were defined as the compound concentration that prevented 50% of resazurin turnover compared to the non-treated bacteria.
(The colour change of resazurin is a common sign of viable cells or microbes.)

The subject of assay [1] is A. baumannii LMG 1025 (ATCC 17978). Briefly: Assay 2: growth inhibition of A. baumannii by sub-inhibitory chloramphenicol in combination with examples (resazurin reduction). Type of assay: cell-based, Acinetobacter baumannii. Particulars: read-out: EC90 on A. baumannii with 10 μg/mL of chloramphenicol, 10 μg/mL chloramphenicol, 5 h or 24 h, 37° C.
From the text: as §1
Measurement of Growth Inhibition of A. baumannii Strains by Sub Inhibitory Concentrations of Chloramphenicol in Combination with Examples 1-137
For the evaluation of the dose dependent activity of examples 1-137, their ability to boost the antibacterial activity of sub-inhibitory concentrations chloramphenicol was determined. Briefly, A. baumannii LMG 1025 (ATCC 17978) were diluted from frozen or growing stocks to an OD600 of 0.001 in CAMHB. The bacterial suspension was then used as such (no-antibiotic control to evaluate EPI activity), or spiked with chloramphenicol at a final concentration of 10 μg/mL. Bacteria were then added to microplates carrying serial dilutions of the compounds examples 1-137, and incubated for (5 h or 24 h, 37° C.). Bacterial viability was evaluated using the resazurin reduction assay, and measured by fluorescence (POLARstar Omega, BMG Labtech: Ex: 530 nm Em: 590 nm). […] were defined as the compound concentration that prevented 90% of resazurin turnover compared to the non-treated bacteria.

SMILES strings stand for the structures. Where a name gives a salt, the structure may show the parent alone. A value given as a limit tells only on which side of the number the result lay.

Consider `Cc1ccc(COC(=O)c2cnc(N3CCNCC3)c(Cl)c2)cc1` [Example 24, p-tolylmethyl 5-chloro-6-piperazin-1-yl-pyridine-3-carboxylate;hydrochloride], for which the EC50 in the assay on E. coli BW25113 is 5 to 100 µM. Besides, the EC90 in assay [1] was in the range of 100 to 500 µM.
On the same counts, the results for `Ic1cc2ccccc2nc1N1CCNCC1` [Example 52, 3-iodo-2-piperazin-1-yl-quinoline;hydrochloride] are under 5 µM and 100 to 500 µM.
As to `Cc1cccc2cc(Cl)c(N3CCNCC3)nc12` [Example 59, 3-chloro-8-methyl-2-piperazin-1-yl-quinoline;hydrochloride], the EC50 in the assay on E. coli BW25113 is under 5 µM. Also, the EC90 in assay [1] was in the range of 100 to 500 µM.
`Clc1nc2ccccc2nc1N1CCNCC1` [Example 46, 2-chloro-3-piperazin-1-yl-quinoxaline;hydrochloride]: in the assay on E. coli BW25113, the EC50 is under 5 µM. In addition, the EC90 in assay [1] lay within 100 to 500 µM.
For the molecule `Clc1ccc2nc(N3CCNCC3)c(Br)cc2c1` [Example 54, 3-bromo-6-chloro-2-piperazin-1-yl-quinoline; hydrochloride], the EC50 with E. coli BW25113 was under 5 µM. Moreover, in assay [1], the EC90 lay within 100 to 500 µM.
On the same counts, the results for `FC(F)(F)c1cnc(N2CCNCC2)c(Br)c1` [Example 17, 1-[3-bromo-5-(trifluoromethyl)-2-pyridyl]piperazine; hydrochloride] are 5 to 100 µM and 100 to 500 µM.
On the same counts, the results for `COc1ccc(COC(=O)c2cnc(N3CCNCC3)c(Cl)c2)cc1` [Example 31, (4-methoxyphenyl)methyl 5-chloro-6-piperazin-1-yl-pyridine-3-carboxylate;hydrochloride] are 5 to 100 µM and 100 to 500 µM.
As to `FC(F)(F)c1cnc(N2CCNCC2)c(Cl)c1` [Example 14, 1-[3-chloro-5-(trifluoromethyl)-2-pyridyl]piperazine; hydrochloride], the EC50 in the assay with E. coli BW25113 was in the range of 5 to 100 µM. The EC90 in assay [1] was in the range of 100 to 500 µM.
Regarding `FC(F)(F)c1cc(I)cnc1N1CCNCC1` [Example 21, 1-[5-iodo-3-(trifluoromethyl)-2-pyridyl]piperazine; hydrochloride], the EC50 in the assay on E. coli BW25113 is 5 to 100 µM. The EC90 in assay [1] lay within 100 to 500 µM.
`Brc1cnc(N2CCNCC2)c2ccccc12` [Example 44, 4-bromo-1-piperazin-1-yl-isoquinoline;hydrochloride]: the EC50 in the assay on E. coli BW25113 fell in the range of 100 to 500 µM. Besides, the EC90 in assay [1] is 5 to 100 µM.
`O=C(OCCc1ccc(Cl)cc1)c1cnc(N2CCNCC2)c(Cl)c1` [Example 26, 2-(4-chlorophenyl)ethyl 5-chloro-6-piperazin-1-yl-pyridine-3-carboxylate;hydrochloride]: the EC50 in the assay on E. coli BW25113 was 100 to 500 µM. In addition, the EC90 in assay [1] is 100 to 500 µM.
As to `FC(F)(F)c1cnc(N2CC3CC2CN3)c(Cl)c1` [Example 15, (1S,4S)-2-[3-chloro-5-(trifluoromethyl)-2-pyridyl]-2,5-diazabicyclo[2.2.1]heptane;formic acid], the EC50 with E. coli BW25113 fell in the range of 100 to 500 µM. Moreover, the EC90 in assay [1] fell in the range of 100 to 500 µM.
On to `Clc1cc2ccccc2nc1N1CCCNCC1` [Example 11, 3-chloro-2-(1,4-diazepan-1-yl)quinoline], for which, in the assay with E. coli BW25113, the EC50 lay within 5 to 100 µM. The EC90 in assay [1] lay within 100 to 500 µM.
Regarding `Clc1ccc2nc(Cl)c(N3CCNCC3)cc2c1` [Example 41, 2,6-dichloro-3-piperazin-1-yl-quinoline;hydrochloride], the EC50 in the assay with E. coli BW25113 was 5 to 100 µM. Also, the EC90 in assay [1] is 100 to 500 µM.
`Clc1nc2ccccc2nc1N1CC2CCC(C1)N2` [Example 48, 2-chloro-3-(3,8-diazabicyclo[3.2.1]octan-3-yl)quinoxaline;hydrochloride]: the EC50 in the assay with E. coli BW25113 is 5 to 100 µM. The EC90 in assay [1] was 100 to 500 µM.
On to `FC(F)(F)c1ccc(N2CCNCC2)c(Cl)c1` [Example 20, 1-[2-chloro-4-(trifluoromethyl)phenyl]piperazine; hydrochloride], for which, in the assay with E. coli BW25113, the EC50 fell in the range of 5 to 100 µM. Moreover, in assay [1], the EC90 was in the range of 100 to 500 µM.
As to `FC(F)(F)c1cnc(N2CCCNCC2)c(Cl)c1` [Example 6, 1-[3-chloro-5-(trifluoromethyl)-2-pyridyl]-1,4-diazepane], in the assay on E. coli BW25113, the EC50 is 100 to 500 µM. Further, the EC90 in assay [1] lay in the range of 100 to 500 µM.
Turning to `O=C(OCc1ccccc1)c1cnc(N2CCNCC2)c(Cl)c1` [Example 22, benzyl 5-chloro-6-piperazin-1-yl-pyridine-3-carboxylate;hydrochloride], the EC50 in the assay on E. coli BW25113 fell in the range of 5 to 100 µM. In assay [1], the EC90 fell in the range of 100 to 500 µM.
On the same counts, the results for `C[C@@H]1CN(c2nc3ccccc3nc2Cl)CCN1` [Example 49, hydrochloride] are 5 to 100 µM and 100 to 500 µM.
On the same counts, the results for `Clc1cc2cc(-c3cccc4c3CNC4)ccc2nc1N1CCNCC1` [Example 134, 3-chloro-6-isoindolin-4-yl-2-piperazin-1-yl-quinoline;dihydrochloride] are under 5 µM and 5 to 100 µM.
On to `Cc1cc2ccccc2nc1N1CCNCC1` [Example 38, 3-methyl-2-piperazin-1-yl-quinoline; hydrochloride], for which the EC50 with E. coli BW25113 was in the range of 5 to 100 µM. Also, the EC90 in assay [1] fell in the range of 100 to 500 µM.
In the case of `Clc1cc2ccccc2nc1N1CCNCC1` [Example 37, 3-chloro-2-piperazin-1-yl-quinoline; hydrochloride], the EC50 in the assay on E. coli BW25113 is under 5 µM. The EC90 in assay [1] fell in the range of 5 to 100 µM.
For the molecule `Cc1ccc2nc(Cl)c(N3CCNCC3)cc2c1` [Example 42, 2-chloro-6-methyl-3-piperazin-1-yl-quinoline;hydrochloride], the EC50 with E. coli BW25113 was in the range of 5 to 100 µM. The EC90 in assay [1] is 100 to 500 µM.
Turning to `O=C(OCc1ccc(Cl)cc1)c1cnc(N2CCNCC2)c(Cl)c1` [Example 25, (4-chlorophenyl)methyl 5-chloro-6-piperazin-1-yl-pyridine-3-carboxylate;hydrochloride], the EC50 with E. coli BW25113 fell in the range of 5 to 100 µM. For the same molecule, the EC90 in assay [1] is 100 to 500 µM.
As to `O=C(OCCc1ccccc1)c1cnc(N2CCNCC2)c(Cl)c1` [Example 30, 2-phenylethyl 5-chloro-6-piperazin-1-yl-pyridine-3-carboxylate;hydrochloride], in the assay with E. coli BW25113, the EC50 is 5 to 100 µM. Further, the EC90 in assay [1] is 100 to 500 µM.
Take `Brc1cnc(N2CCCNCC2)c2ccccc12` [Example 8, 4-bromo-1-(1,4-diazepan-1-yl)isoquinoline]: the EC50 in the assay on E. coli BW25113 is 5 to 100 µM. In assay [1], the EC90 is 5 to 100 µM.
In the case of `Brc1cc2ccccc2nc1N1CCNCC1` [Example 43, 3-bromo-2-piperazin-1-yl-quinoline;hydrochloride], in the assay on E. coli BW25113, the EC50 is under 5 µM. In addition, the EC90 in assay [1] fell in the range of 100 to 500 µM.
Regarding `Cc1ccc2nc(N3CCNCC3)c(Br)cc2c1` [Example 55, 3-bromo-6-methyl-2-piperazin-1-yl-quinoline;hydrochloride], the EC50 in the assay with E. coli BW25113 was under 5 µM. Also, the EC90 in assay [1] is 100 to 500 µM.
In the case of `Clc1cc2ccccc2nc1N1C2CCC1CNC2` [Example 45, 3-chloro-2-(3,8-diazabicyclo[3.2.1]octan-8-yl)quinoline;hydrochloride], in the assay with E. coli BW25113, the EC50 was in the range of 100 to 500 µM. In addition, in assay [1], the EC90 lay in the range of 100 to 500 µM.
Take `O=C(NCc1ccc(Cl)cc1)c1cnc(N2CCNCC2)c(Cl)c1` [Example 33, 5-chloro-N-[(4-chlorophenyl)methyl]-6-piperazin-1-yl-pyridine-3-carboxamide;hydrochloride]: the EC50 with E. coli BW25113 was 5 to 100 µM. Moreover, the EC90 in assay [1] lay within 100 to 500 µM.
Turning to `CCN1CCN(c2nc3ccccc3nc2Cl)CC1` [Example 9, 2-chloro-3-(4-ethylpiperazin-1-yl)quinoxaline;hydrochloride], the EC50 in the assay on E. coli BW25113 was 5 to 100 µM. Further, the EC90 in assay [1] was in the range of 100 to 500 µM.
On to `Clc1cc2cc(-c3ccccc3)ccc2nc1N1CCNCC1` [Example 106, 3-chloro-6-phenyl-2-piperazin-1-yl-quinoline;hydrochloride], for which the EC50 with E. coli BW25113 fell in the range of 5 to 100 µM. In assay [1], the EC90 lay within 5 to 100 µM.
`N#Cc1cc2ccccc2nc1N1CCNCC1` [Example 39, 2-piperazin-1-ylquinoline-3-carbonitrile; hydrochloride]: in the assay with E. coli BW25113, the EC50 is 5 to 100 µM. For the same molecule, the EC90 in assay [1] was in the range of 100 to 500 µM.
Consider `Cc1c(Cl)ccc2cc(Cl)c(N3CCNCC3)nc12` [Example 98, 3,7-dichloro-8-methyl-2-piperazin-1-yl-quinoline;hydrochloride], for which, in the assay on E. coli BW25113, the EC50 was under 5 µM. Further, the EC90 in assay [1] was in the range of 5 to 100 µM.
In the case of `O=C(OCCCc1ccc(Cl)cc1)c1cnc(N2CCNCC2)c(Cl)c1` [Example 27, 3-(4-chlorophenyl)propyl 5-chloro-6-piperazin-1-yl-pyridine-3-carboxylate;hydrochloride], the EC50 with E. coli BW25113 was in the range of 100 to 500 µM. The EC90 in assay [1] was 100 to 500 µM.
